From patent publication US4022606A, “Antimicrobial use of ω-aminocarboxylic acid amides” (Henkel & Cie G.m.b.H., priority 1973, dated 1977) come the findings set out here.

Each structure is given as a SMILES string. In brackets after ≈: the same amount, converted by molar mass.

Common to all, as to assay type: cell-based
Experiment [1] deals with Staphylococcus aureus. The experiment in a line: Minimum inhibitory concentration, dilution test, germ 1. The following applies: 72 h, 5 × 10^7 organisms/ml, 3 days at 37° C. As for the experimental part: (§1) In order to measure the antimicrobial efficacy of the above-named ω-aminocarboxylic acid amides, their inhibitory effect upon the subsequently listed bacteria and fungi, as well as upon the germs in contaminated process water was determined.
(§2) 1) Staphylococcus aureus
(§3) The minimum inhibitory concentrations of the products to be tested were determined by means of the dilution test according to the standards for the examination of chemical disinfectants which had been published in 1959 by the Deutsche Gesellschaft fur Hygiene und Mikrobiologie (German Association for Hygiene and Microbiology). The tests were carried out in test tubes which were filled with Standard-I-Broth (Merck) or with beer wort (8° Be) and diluted 1:5 with tap water. After the addition of the active substances, the volume of the nutrient solution in the test tubes was adjusted to 10 ml. Next, the test tubes were inoculated with 0.1 ml test organism suspension. In the case of bacteria, the inoculated test tubes were incubated in the incubator for 3 days at 37° C. and in the case of fungi, they incubated for 6 days at 30° C. Subsequently, the concentration of the compound added to the nutrient medium which was just able to inhibit completely the growth of the germs was determined. The value thus determined was designated as the minimum inhibitory concentration (m.i.c.). The following concentration intervals were used for the tests: 1,000 ppm, 750 ppm, 500 ppm, 250 ppm, 100 ppm, 50 ppm, 25 ppm, 10 ppm, 7.5 ppm, 5 ppm, 2.5 ppm, and 1 ppm.
(§4) The inhibitory concentrations of the individual products for the above-quoted germs which were determined in this dilution test are listed in the following Table III.

Another experiment has as its system Aspergillus niger. The experiment in a line: Minimum inhibitory concentration, dilution test, germ 5. Conditions: 144 h, 9 × 10^5 organisms/ml, 6 days at 30° C. As for the experimental part:
as §1
5) Aspergillus niger 9 × 10^5 organisms/ml
as §3, §4

Experiment [2] relates to Escherichia coli. In words: Minimum inhibitory concentration, dilution test, germ 2. Conditions: 72 h, 4 × 10^7 organisms/ml, 3 days at 37° C. As for the experimental part:
as §1
(§5) 2) Escherichia coli 4 × 10^7 organisms/ml
as §3, §4

The subject of experiment [3] is Mixture of contaminated water from 3 scrubbers of air conditioning installations. In words: Minimum inhibitory concentration, dilution test, germ 7. How it is done: as §1
7) Mixture of contaminated water
from 3 scrubbers of air con-
ditioning installations
as §3, §4

Experiment [4] has as its system Staphylococcus aureus. In words: Microbicidal effect, suspension test, germ 1. The following applies: 18° C. to 21° C. How it is done: (§6) The microbicidal effect of some products named above was determined by means of the suspension test. The methodology of this testing procedure has been taken from the standards for the testing of chemical disinfectants, published in 1959 by the German Association for Hygiene and Microbiology. In conformity with these standards, 0.1 ml of a test organism suspension of the following enumerated bacteria or fungi was pipetted into test tubes at 18° C. to 21° C.
as §2
(§7) The products of the invention to be tested were dissolved in tap water of 16° dH (German degrees of hardness). Then, 10 ml of the respective dilution quantity of the product to be tested were added to each test tube. The concentrations of the products according to the invention were 100 ppm, 250 ppm and 500 ppm in each case. After a duration of action amounting to 1, 2.5, 5, 10, 20, 30 and 60 minutes, a loop of material was taken from each test tube and inoculated in 10 ml of nutrient solution which contained 3% Tween and 0.3% Lecithin as de-inhibitors. The nutrient solutions inoculated with bacteria were incubated at 37° C. whereas the nutrient solutions inoculated with fungi were incubated at 30° C. After 6 days, the growth of the cultures was macroscopically evaluated.

The subject of experiment [5] is Escherichia coli. In words: Microbicidal effect, suspension test, germ 2. Conditions: 18° C. to 21° C. As for the experimental part:
as §6, §5, §7

Experiment [6] has as its system Mixture of contaminated water from 3 cooling towers. In words: Minimum inhibitory concentration, dilution test, germ 6. How it is done:
as §1
6) Mixture of contaminated water
as §3, §4

A further experiment relates to Candida albicans. The experiment in a line: Minimum inhibitory concentration, dilution test, germ 4. The following applies: 144 h, 2 × 10^6 organisms/ml, 6 days at 30° C. As for the experimental part:
as §1
4) Candida albicans 2 × 10^6 organisms/ml
as §3, §4

Experiment [7] deals with Pseudomonas aeruginosa. In words: Minimum inhibitory concentration, dilution test, germ 3. Conditions: 72 h, 4 × 10^7 organism/ml, 3 days at 37° C. How it is done: as §1
(§8) 3) Pseudomonas aeruginosa
as §3, §4

The test system of experiment [8] is Pseudomonas aeruginosa. The experiment in a line: Microbicidal effect, suspension test, germ 3. Conditions: 18° C. to 21° C. How it is done:
as §6, §8, §7

In experiment [9] the test system is Desulfovibrio desulfuricans. The experiment in a line: Inhibition of the growth of sulfate-reducing bacteria. Conditions: 672 h, 6× 10^5 organisms/ml, 37° C., 4 weeks, pH 7.4, read-out: Inhibitory Concentration, growth of Desulfovibrio Desulfuricans. As for the experimental part: The minimum inhibitory concentrations were determined in 50 ml screw-top bottles. The bottles were charged with an optimum nutrient solution for the growth of sulfate-reducing bacteria of the following composition:
which compounds were dissolved in 1000 ml of distilled water. The pH value of the nutrient solution was 7.4.
After various concentrations of the products to be tested had been added, 1 ml of a pure culture of Desulfovibrio desulfuricans 6× 10^5 organisms/ml was used for inoculation, followed by incubation at 37° C. for 4 weeks. The following concentration intervals were used for the tests: 100 ppm, 50 ppm, 40 ppm, 30 ppm, 20 ppm, 10 ppm, 5 ppm, 2.5 ppm, and 1 ppm.
In this test, the minimum inhibitory concentrations listed in the following Table VI were determined for the individual products.

The test system of experiment [10] is mixed suspension of Scenedesmus obliquus and Chlorella vulgaris. In words: Efficacy in inhibiting growth of algae. Conditions: 168 h; after 7 days, pH 7.2; read-out: Minimum Inhibitory Concentration, growth of algae. How it is done: The efficacy in inhibiting growth of algae was determined in cylindrical vessels under intensive aeration. Into the vessels, there were introduced 100 ml of a nutrient solution to which increasing quantities of active substances had been added as well as 4 ml of a mixed suspension of Scenedesmus obliquus and Chlorella vulgaris.
The nutrition solution has the following composition:
These compounds were dissolved in 1000 ml of distilled water. The pH value of the nutrient solution was 7.2. The tests were carried out with the following concentration intervals of the active substance: 10 ppm, 5 ppm, 2.5 ppm, 2 ppm, 1.5 ppm, 1 ppm, 0.75 ppm, 0.5 ppm, and 0.25 ppm.

With `CCCCCCCCCCCCNC(=O)CN.Cl` [Product A, N-glycyl-dodecylamine hydrochloride], the MIC came to 50 µg/mL in the experiment with Staphylococcus aureus [1]; 100 µg/mL against Aspergillus niger; 100 µg/mL against Escherichia coli [2]; 25 µg/mL in [3]; 25 µg/mL in [6]; 50 µg/mL against Candida albicans. In the experiment with Pseudomonas aeruginosa [7], this molecule returned an MIC of 500 µg/mL. In addition, the “Sterilization Time” value in the experiment on Staphylococcus aureus [4] (100 ppm in tap water) is 10 min; with Staphylococcus aureus [4] (250 ppm in tap water), 5 min; in the experiment on Staphylococcus aureus [4] (500 ppm in tap water), 5 min; in the experiment on Escherichia coli [5] (100 ppm in tap water) it was 20 min; in the experiment on Escherichia coli [5] (250 ppm in tap water), 10 min; in the experiment on Escherichia coli [5] (500 ppm in tap water), 10 min. In addition, the “Sterilization Time” value with Pseudomonas aeruginosa [8] (100 ppm in tap water) was 60 min; in the experiment on Pseudomonas aeruginosa [8] (250 ppm in tap water) it was 20 min; in the experiment on Pseudomonas aeruginosa [8] (500 ppm in tap water) it was 10 min.

Regarding `CCCCCCCCCCNC(=O)CCN` [Product B, 3-aminopropionic acid-decylamide], the MIC came to 50 µg/mL (≈ 219 µM) against Staphylococcus aureus [1]; 100 µg/mL (≈ 438 µM) against Aspergillus niger; 50 µg/mL (≈ 219 µM) in the experiment with Escherichia coli [2]; 25 µg/mL (≈ 109 µM) in [3]; 25 µg/mL (≈ 109 µM) in experiment [6]; 100 µg/mL (≈ 438 µM) against Candida albicans. For the same molecule, the MIC in experiment [9] is 5 µg/mL (≈ 21.9 µM); in the experiment with Pseudomonas aeruginosa [7] it was 100 µg/mL (≈ 438 µM); in experiment [10], 1 µg/mL (≈ 4.38 µM). Moreover, the “Sterilization Time” value with Staphylococcus aureus [4] (100 ppm in tap water) was 5 min; in the experiment with Staphylococcus aureus [4] (250 ppm in tap water), 5 min; with Staphylococcus aureus [4] (500 ppm in tap water) it was 5 min; with Escherichia coli [5] (100 ppm in tap water), 10 min; in the experiment with Escherichia coli [5] (250 ppm in tap water), 10 min; in the experiment with Escherichia coli [5] (500 ppm in tap water), 10 min. For the same molecule, the “Sterilization Time” value turned out to be 30 min in the experiment on Pseudomonas aeruginosa [8] (100 ppm in tap water), 10 min in the experiment on Pseudomonas aeruginosa [8] (250 ppm in tap water) and 10 min with Pseudomonas aeruginosa [8] (500 ppm in tap water).

For `CCCCCCCCCCCCNC(=O)CCCCCN(C)C` [Product C, 6-(N,N-dimethylamino)capronic acid-dodecylamide], the MIC against Staphylococcus aureus [1] stood at 25 µg/mL (≈ 76.6 µM); against Aspergillus niger it was 250 µg/mL (≈ 766 µM); in the experiment on Escherichia coli [2], 25 µg/mL (≈ 76.6 µM); in [3] it was 10 µg/mL (≈ 30.6 µM); in experiment [6], 10 µg/mL (≈ 30.6 µM); against Candida albicans, 100 µg/mL (≈ 306 µM). For the same molecule, the values for the MIC (in experiment [9]; in the experiment with Pseudomonas aeruginosa [7]; in experiment [10]) were 2.5 µg/mL (≈ 7.66 µM), 1000 µg/mL (≈ 3060 µM) and 0.75 µg/mL (≈ 2.3 µM), respectively. The “Sterilization Time” value with Staphylococcus aureus [4] (100 ppm in tap water) amounted to 5 min; with Staphylococcus aureus [4] (250 ppm in tap water), 2.5 min; with Staphylococcus aureus [4] (500 ppm in tap water), 2.5 min; in the experiment on Escherichia coli [5] (100 ppm in tap water), 10 min; in the experiment with Escherichia coli [5] (250 ppm in tap water), 5 min; in the experiment on Escherichia coli [5] (500 ppm in tap water), 5 min. Also, the “Sterilization Time” value came to 30 min in the experiment with Pseudomonas aeruginosa [8] (100 ppm in tap water), 10 min in the experiment on Pseudomonas aeruginosa [8] (250 ppm in tap water) and 5 min in the experiment on Pseudomonas aeruginosa [8] (500 ppm in tap water).

Consider `CCCCCCCCCCCCNC(=O)CCCCCN` [Product D, 6-aminocapronic acid-dodecylamide], for which the MIC against Staphylococcus aureus [1] is 5 µg/mL (≈ 16.7 µM); against Aspergillus niger, 50 µg/mL (≈ 167 µM); in the experiment on Escherichia coli [2], 5 µg/mL (≈ 16.7 µM); in experiment [3] it was 5 µg/mL (≈ 16.7 µM); in experiment [6] it was 5 µg/mL (≈ 16.7 µM); in the experiment with Candida albicans, 50 µg/mL (≈ 167 µM). The molecule also returned an MIC against Pseudomonas aeruginosa [7] of 100 µg/mL (≈ 335 µM).

As to `CCCCCCCCCCCCNC(=O)CCCCCNC(=O)CCCCCN` [Product E], the MIC against Staphylococcus aureus [1] came out at 50 µg/mL (≈ 121 µM); in the experiment on Aspergillus niger, 250 µg/mL (≈ 607 µM); against Escherichia coli [2], 50 µg/mL (≈ 121 µM); in experiment [3] it was 25 µg/mL (≈ 60.7 µM); in [6], 25 µg/mL (≈ 60.7 µM); against Candida albicans, 250 µg/mL (≈ 607 µM). For the same molecule, the MIC against Pseudomonas aeruginosa [7] was 250 µg/mL (≈ 607 µM).

As to `CCCCCCCCCCCCCCNC(=O)CCCCCN` [Product F], the MIC was 5 µg/mL (≈ 15.3 µM) in the experiment on Staphylococcus aureus [1]; 100 µg/mL (≈ 306 µM) against Aspergillus niger; 5 µg/mL (≈ 15.3 µM) against Escherichia coli [2]; 7.5 µg/mL (≈ 23 µM) in experiment [3]; 7.5 µg/mL (≈ 23 µM) in experiment [6]; 50 µg/mL (≈ 153 µM) in the experiment on Candida albicans. In the experiment on Pseudomonas aeruginosa [7], this molecule gave an MIC of 250 µg/mL (≈ 766 µM).
